This passage reports IC50 results from BindingDB's records for doi:10.7270/Q2M61HQ8 (Southern Research Specialized Biocontainment Screening …, 2010).

Molecules are shown by their SMILES.

This assay deals with Large T antigen (Simian virus 40, UniProt P03070). Put plainly: SV40 large T antigen inhibitors, biochemical (AID 1903).
Chain of Large T antigen (P03070 whole entry): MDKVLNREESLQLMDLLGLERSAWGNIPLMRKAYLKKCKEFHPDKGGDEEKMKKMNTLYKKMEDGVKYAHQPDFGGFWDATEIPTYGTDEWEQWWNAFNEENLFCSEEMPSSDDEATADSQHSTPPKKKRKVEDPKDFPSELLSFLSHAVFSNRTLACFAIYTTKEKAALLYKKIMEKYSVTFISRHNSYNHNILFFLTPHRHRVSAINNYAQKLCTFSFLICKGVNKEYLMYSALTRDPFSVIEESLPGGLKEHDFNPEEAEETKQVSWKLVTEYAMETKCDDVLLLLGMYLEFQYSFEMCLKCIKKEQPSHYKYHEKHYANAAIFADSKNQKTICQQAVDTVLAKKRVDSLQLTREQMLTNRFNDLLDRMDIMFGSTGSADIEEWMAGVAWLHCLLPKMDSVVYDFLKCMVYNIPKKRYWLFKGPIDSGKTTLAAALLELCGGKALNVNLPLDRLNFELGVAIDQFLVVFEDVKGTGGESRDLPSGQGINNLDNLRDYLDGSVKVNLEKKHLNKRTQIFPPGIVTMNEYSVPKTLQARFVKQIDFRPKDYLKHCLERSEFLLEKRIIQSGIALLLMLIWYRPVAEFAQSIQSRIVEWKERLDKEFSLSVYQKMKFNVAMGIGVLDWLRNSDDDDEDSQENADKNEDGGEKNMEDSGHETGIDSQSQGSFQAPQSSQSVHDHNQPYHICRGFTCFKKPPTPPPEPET
For the compound `N#CC1C(=N)C2=C(N3CCCCC3)CCCC2C1(C#N)C#N` (stereo unspecified) [3-Amino-4-piperidin-1-yl-5,6,7,7a-tetrahydro-indene-1,1,2-tricarbonitrile], the midpoint of inhibition, the IC50, lay at 9.99 µM.

On to `CN(C)c1ccc(N=CCC(=O)c2ccccc2)cc1` [(E)-3-[4-(dimethylamino)anilino]-1-phenyl-2-propen-1-one], for which 5.19 µM corresponded to half-maximal inhibition (IC50). Next, `Oc1ccc(-c2nc3c[nH]ccn-3c2=Nc2ccc3c(c2)OCCO3)cc1` [MLS000116162]: 4.14 µM; `COc1cc(-c2nc3c[nH]ccn-3c2=Nc2ccccc2)ccc1O` [SMR000093145]: 5.05 µM.

On to `O=C1CCCC2=Nc3[nH]c(=S)[nH]c(=O)c3C(c3ccc(Br)cc3)C12` (stereo unspecified) [5-(4-bromophenyl)-2-thioxo-2,3,5,8,9,10-hexahydropyrimido[4,5-b]quinoline-4,6(1H,7H)-dione], for which the concentration for half-maximal inhibition (IC50) came out at 48.1 µM. Regarding `O=C1CCCC(=O)C1=CNc1ccc(O)cc1` [2-[(4-hydroxyanilino)methylidene]cyclohexane-1,3-dione], the midpoint of inhibition, the IC50, lay at 12.3 µM. For `Cc1ccc(Nc2oc3cc(=O)ccc-3cc2C(N)=O)cc1` [2-(4-methylanilino)-7-oxochromene-3-carboxamide], the IC50 is 33.8 µM. Next, `CCN(CC)CCN1C(=O)C(=O)C(C(=O)c2ccc(C)cc2)C1c1cccnc1` (stereo unspecified) [(4E)-1-[2-(diethylamino)ethyl]-4-[hydroxy-(4-methylphenyl)methylidene]-5-(3-pyridinyl)pyrrolidine-2,3-dione]: 18.9 µM; `Cc1cc(-c2nc3c4c5c(sc4nc(=O)n3[nH]2)CCC5)c(C)o1` [MLS000048351]: 24.8 µM. Take `CC1(C)CC(=O)C(=CNc2ccc(O)cc2)C(=O)C1` [SMR000024722]: the 50% inhibitory concentration (IC50) was found to be 5.53 µM. `CN(C)c1ccc(NC(=O)c2cccc(-n3c(O)ccc3O)c2)cc1` [N-[4-(dimethylamino)phenyl]-3-(2,5-dioxopyrrolidin-1-yl)benzamide] showed a 50% inhibitory concentration (IC50) of 9.21 µM.
